Test results as given in patent publication US20240336611A1 (Insilico Medicine IP Limited, priority 2021, published 2024).
pIC50: −log10 of the molar value.

Columns and labels:
[1] = Metabolic stability in human liver microsomes; format: in vitro ADME; conditions: LM Clint (intrinsic clearance); 1 μM test compound, 0.5 mg protein/mL microsome, 37° C., up to 60 min
Experimental: 2.1. Test Compound and Control Working Solution Preparation: Working solution: 5 µL of compound and control stock solution (10 mM in dimethyl sulfoxide (DMSO)) were diluted with 495 μL of acetonitrile (ACN) (intermediate solution concentration: 100 μM, 99% ACN).
2.2.1. […] 2.2.2. Preparation Procedure: The appropriate amount of NADPH powder were weighed and diluted into a 10 mM MgCl2 solution (working solution concentration: 10 unit/mL; final concentration in reaction system: 1 unit/mL).
2.3.2. Preparation Procedure: The appropriate concentrations of microsome working solutions were prepared in 100 mM potassium phosphate buffer. 2.4. Stop Solution Preparation: Cold (4° C.) acetonitrile (ACN) containing 200 ng/mL tolbutamide and 200 ng/mL labetalol as internal standards (IS) were used as the stop solution.
2.5.1. Pre-warm empty ‘Incubation’ plates T60 and NCF60 for 10 min minutes. 2.5.2. Liver microsomes were diluted to 0.56 mg/mL in 100 mM phosphate buffer. 2.5.3. 445 uL microsome working solutions (0.56 mg/mL) were transferred into pre-warmed ‘Incubation’ plates T60 and NCF60. Then ‘Incubation’ plates T60 and NCF60 were pre-incubated for 10 min at 37° C. with constant shaking. 54 μL liver microsomes were transferred to blank plate, then 6 μL NAPDH cofactor were added to the blank plate, and then 180 μL quenching solution can be added to blank plate. 2.5.4 5 μL compound working solution (100 μM) were added into ‘incubation’ plates (T60 and NCF60) containing microsomes and mix 3 times thoroughly. 2.5.5. For the NCF60 plate, 50 uL of buffer were added and were mixed 3 times thoroughly. Start timing; plate was incubated at 37° C. for 60 min while shaking. 2.5.6. In ‘Quenching’ plate TO, 180 μL quenching solution were added and 6 μL NAPDH cofactor were added. Ensured the plate was chilled to prevent evaporation. 2.5.7. For the T60 plate, were mixed 3 times thoroughly, and immediately removed 54 μL mixture for the 0-min time point to ‘Quenching’ plate. Then 44 μL NAPDH cofactor were added to incubation plate (T60). Start timing; plate were incubated at 37° C. for 60 min while shaking.
2.5.8. At 5, 10, 20, 30, and 60 min, 180 μL quenching solution were added to ‘Quenching’ plates, mix once, and were serially transferred 60 μL sample from T60 plate per time point to ‘Quenching’ plates.
2.5.9. For NCF60: were mixed once, and 60 μL sample were transferred from the NCF60 incubation to ‘Quenching’ plate containing quenching solution at the 60-min time point.
2.5.10. All sampling plates were shaken for 10 min, then centrifuged at 4000 rpm for 20 minutes at 4° C. 2.5.11. 80 μL supernatant were transferred into 240 μL HPLC water, and were mixed by plate shaker for 10 min. 2.5.12. Each bioanalysis plate were sealed and shaken for 10 minutes prior to LC-MS/MS analysis.
3.1. The equation of first order kinetics were used to calculate T1/2 and Intrinsic clearance (CLint mic) in (μL/min/mg).
Equation of first order kinetic.

[2] = target: T1, TNIK kinase [amino acid sequence (1-367), Invitrogen] (Homo sapiens, UniProt Q9UKE5); experiment: TNIK kinase inhibition assay (Z-lyte FRET-peptide); format: biochemical; conditions: 0.625 nM TNIK kinase, 2 μM Ser/Thr 7 peptide, 64 μM ATP, one hour at room temperature
T1 construct: purchased Invitrogen
T1 sequence (Q9UKE5 1-367): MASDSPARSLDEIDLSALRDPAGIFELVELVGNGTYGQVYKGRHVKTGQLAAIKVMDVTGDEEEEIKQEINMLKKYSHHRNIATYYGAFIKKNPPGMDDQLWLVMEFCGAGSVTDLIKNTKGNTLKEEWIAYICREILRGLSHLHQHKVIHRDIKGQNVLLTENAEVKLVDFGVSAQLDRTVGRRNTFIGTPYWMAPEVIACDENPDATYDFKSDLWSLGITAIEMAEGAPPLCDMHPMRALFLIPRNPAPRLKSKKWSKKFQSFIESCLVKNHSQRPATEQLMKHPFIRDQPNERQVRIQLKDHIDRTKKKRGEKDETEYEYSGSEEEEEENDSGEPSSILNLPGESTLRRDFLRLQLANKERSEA
Experimental: Z-lyte assay kit was purchased from Invitrogen. A site-specific protease recognizes and cleaves non-phosphorylated FRET-peptides. Phosphorylation of FRET-peptides suppresses cleavage by protease and will maintain FRET from donor to acceptor.
5 μl of Development Reagent A solution was then added to cleave non-phosphorylated peptide with a dilution 1:65000 in Development Buffer B. The assay plate was incubated at room temperature for another one hour and then read in the Envision plate reader (PerkinElmer).

SMILES	Human Liver Microsome (μM/min/mg) [1]	pIC50 [2]
CC(C)n1cnc(-c2ccc(F)cc2)c1-c1nc(C(=O)Nc2ccc(N3CCN(C)CC3)cc2)cs1 [Compound 2, 2-(4-(4-fluorophenyl)-1-isopropyl-1H-imidazol-5-yl)-N-(4-(4-methylpiperazin-1-yl)phenyl)thiazole-4-carboxamide]	++ (10-100 μM/min/mg as ++)	7.92 to 9.00
CC(C)n1cnc(-c2ccc(F)cc2)c1-c1nc(C(=O)Nc2ccc(N3CCN(C)CC3)cc2F)cs1 [Compound 6, N-(2-fluoro-4-(4-methylpiperazin-1-yl)phenyl)-2-(4-(4-fluorophenyl)-1-isopropyl-1H-imidazol-5-yl)thiazole-4-carboxamide]	+ (>100 μM/min/mg as +)	7.92 to 9.00
CC(C)n1cnc(-c2ccc(F)cc2)c1-c1nc(C(=O)Nc2ccc(N3CCN(C)CC3)cn2)cs1 [Compound 7, 2-(4-(4-fluorophenyl)-1-isopropyl-1H-imidazol-5-yl)-N-(5-(4-methylpiperazin-1-yl)pyridin-2-yl)thiazole-4-carboxamide]	+ (>100 μM/min/mg as +)	7.92 to 9.00
CC(C)n1cnc(-c2ccc(F)cc2)c1-c1nc(C(=O)Nc2ccc(N3CCN(C)CC3)nc2)cs1 [Compound 8, 2-(4-(4-fluorophenyl)-1-isopropyl-1H-imidazol-5-yl)-N-(6-(4-methylpiperazin-1-yl)pyridin-3-yl)thiazole-4-carboxamide]	+ (>100 μM/min/mg as +)	7.92 to 9.00
CC(C)n1cnc(-c2ccc(F)cc2)c1-c1nc(C(=O)Nc2ccc(C3CCN(C)CC3)cn2)cs1 [Compound 9, 2-(4-(4-fluorophenyl)-1-isopropyl-1H-imidazol-5-yl)-N-(5-(1-methylpiperidin-4-yl)pyridin-2-yl)thiazole-4-carboxamide]	++ (10-100 μM/min/mg as ++)	7.92 to 9.00
CC(C)n1cnc(-c2ccc(F)cc2)c1-c1csc(C(=O)Nc2ccc(N3CCN(C)CC3)cc2F)n1 [Compound 12, N-(2-fluoro-4-(4-methylpiperazin-1-yl)phenyl)-4-(4-(4-fluorophenyl)-1-isopropyl-1H-imidazol-5-yl)thiazole-2-carboxamide]	++ (10-100 μM/min/mg as ++)	7.92 to 9.00
CC(C)n1cnc(-c2ccc(F)cc2)c1-c1csc(C(=O)Nc2ccc(N3CCN(C)CC3)cn2)n1 [Compound 13, 4-(4-(4-fluorophenyl)-1-isopropyl-1H-imidazol-5-yl)-N-(5-(4-methylpiperazin-1-yl)pyridin-2-yl)thiazole-2-carboxamide]	+ (>100 μM/min/mg as +)	7.92 to 9.00
CC(C)n1cnc(-c2ccc(F)cc2)c1-c1nc(C(=O)Nc2ccc(N3CCN(C)CC3)cc2F)c[nH]1 [Compound 14, N-(2-fluoro-4-(4-methylpiperazin-1-yl)phenyl)-5′-(4-fluorophenyl)-3′-isopropyl-1H,3′H-[2,4′-biimidazole]-4-carboxamide]	++ (10-100 μM/min/mg as ++)	7.92 to 9.00
CC(C)n1cnc(-c2ccc(F)cc2)c1-c1nc(C(=O)Nc2ccc(N3CCN(C)CC3)cn2)c[nH]1 [Compound 21, 5′-(4-fluorophenyl)-3′-isopropyl-N-(5-(4-methylpiperazin-1-yl)pyridin-2-yl)-1H,3′H-[2,4′-biimidazole]-4-carboxamide]	++ (10-100 μM/min/mg as ++)	7.92 to 9.00
CC(C)n1cnc(-c2ccc(F)cc2)c1-c1nc(C(=O)Nc2ccc(N3CC4CC(C3)N4C)cc2)c[nH]1 [Compound 23, 5′-(4-fluorophenyl)-3′-isopropyl-N-(4-(6-methyl-3,6-diazabicyclo[3.1.1]heptan-3-yl)phenyl)-1H,3′H-[2,4′-biimidazole]-4-carboxamide]	++ (10-100 μM/min/mg as ++)	7.92 to 9.00
CC(C)n1cnc(-c2ccc(F)cc2)c1-c1nc(C(=O)Nc2ccc(N3C[C@H]4CC[C@@H](C3)N4C)cn2)c[nH]1 [Compound 24, 5′-(4-fluorophenyl)-3′-isopropyl-N-(5-((1R,5S)-8-methyl-3,8-diazabicyclo[3.2.1]octan-3-yl)pyridin-2-yl)-1H,3′H-[2,4′-biimidazole]-4-carboxamide]	++ (10-100 μM/min/mg as ++)	7.92 to 9.00
CN1CCN(c2ccc(NC(=O)c3c[nH]c(-c4c(-c5ccc(F)cc5)ncn4C4CCC4)n3)cc2)CC1 [Compound 26, 3′-cyclobutyl-5′-(4-fluorophenyl)-N-(4-(4-methylpiperazin-1-yl)phenyl)-1H,3′H-[2,4′-biimidazole]-4-carboxamide]	++ (10-100 μM/min/mg as ++)	6.82 to 7.92
CC(C)n1cnc(-c2ccc(F)cc2)c1-c1nc(C(=O)Nc2ccc(N3CCN(C)CC3)cc2F)co1 [Compound 28, N-(2-fluoro-4-(4-methylpiperazin-1-yl)phenyl)-2-(4-(4-fluorophenyl)-1-isopropyl-1H-imidazol-5-yl)oxazole-4-carboxamide]	+ (>100 μM/min/mg as +)	7.92 to 9.00
CC(C)n1cnc(-c2ccc(F)cc2)c1-c1nc(C(=O)Nc2ccc(C3CN(C)C3)cn2)cs1 [Compound 30, 2-(4-(4-fluorophenyl)-1-isopropyl-1H-imidazol-5-yl)-N-(5-(1-methylazetidin-3-yl)pyridin-2-yl)thiazole-4-carboxamide]	++ (10-100 μM/min/mg as ++)	7.92 to 9.00
CC(C)c1noc(-c2ccc(F)cc2)c1-c1nc(C(=O)Nc2ccc(C3COC3)cc2F)cs1 [Compound 31, N-(2-fluoro-4-(oxetan-3-yl)phenyl)-2-(5-(4-fluorophenyl)-3-isopropylisoxazol-4-yl)thiazole-4-carboxamide]	++ (10-100 μM/min/mg as ++)	6.82 to 7.92
CC(C)n1cnc(-c2ccc(F)cc2)c1-c1nc(C(=O)Nc2ccc(N3C[C@H]4CC[C@@H](C3)N4C)cn2)co1 [Compound 40, 2-(4-(4-fluorophenyl)-1-isopropyl-1H-imidazol-5-yl)-N-(5-((1R,5S)-8-methyl-3,8-diazabicyclo[3.2.1]octan-3-yl)pyridin-2-yl)oxazole-4-carboxamide]	+ (>100 μM/min/mg as +)	7.92 to 9.00
CC(C)n1cnc(-c2ccc(F)cc2)c1-c1nc(C(=O)Nc2ccc(N3C[C@H]4CC[C@@H](C3)N4C)cn2)cs1 [Compound 41, 2-(4-(4-fluorophenyl)-1-isopropyl-1H-imidazol-5-yl)-N-(5-((1R,5S)-8-methyl-3,8-diazabicyclo[3.2.1]octan-3-yl)pyridin-2-yl)thiazole-4-carboxamide]	++ (10-100 μM/min/mg as ++)	7.92 to 9.00
CN1CCN(c2ccc(NC(=O)c3csc(-c4c(-c5ccc(F)cc5)ncn4C4CC4)n3)nc2)CC1 [Compound 42, 2-(1-cyclopropyl-4-(4-fluorophenyl)-1H-imidazol-5-yl)-N-(5-(4-methylpiperazin-1-yl)pyridin-2-yl)thiazole-4-carboxamide]	++ (10-100 μM/min/mg as ++)	7.92 to 9.00
[2H]C([2H])([2H])N1CC(c2ccc(NC(=O)c3nc(-c4c(-c5ccc(F)cc5)ncn4C(C)C)cs3)c(F)c2)C1 [Compound 131, 4-[5-(4-fluorophenyl)-3-isopropyl-imidazol-4-yl]-N-[2-fluoro-4-[1-(trideuteriomethyl)azetidin-3-yl]phenyl]thiazole-2-carboxamide]	++ (10-100 μM/min/mg as ++)	
